Earlier results, collected in patent publication US9682147B2, “Self-preserved oil dispersions comprising boric acid” (SANTEN SAS, priority 2012, dated 2017).
Like-named read-outs stand apart in the source and are kept apart here.

Key:
[1] = test system: corneal and epithelial cells
corneal cells = settings: boric acid used in cleaning contact lenses solutions
[2] = solution comprising 1.2% w/w of borate

| Compound | Toxicity to corneal and epithelial cells ([1]; 0.5% to 1% boric acid) | Toxicity to corneal and epithelial cells ([1]; concentration of 0.1% boric acid) | Corneal cytotoxicity (corneal cells) | Antimicrobial activity [2] | Criteria for antimicrobial effectiveness given by USP [2] |
| --- | --- | --- | --- | --- | --- |
| OB(O)O [boric acid] | toxic | safe | strong corneal cytotoxicity |  |  |
| borate |  |  |  | some antimicrobial activity | not sufficient to meet the criteria |
